Laboratory results from US20040176321A1, “Compositions of benzoquinolizine carboxylic acid antibiotic drugs” (priority 2002, published 2004).

What was measured:
Wistar rats = conditions: rat, in vivo, iv
Protocol: Wistar rats of body weight range 90-100 gm were treated with i.v. administered above test compositions in doses specified in the table below for a period of 7 days to 28 days. The test doses were administered by injecting 0.5 ml-1.0 ml of test compositions via tail vein of each rat with the help of graduated 1 ml disposable syringe fitted with 26½ G needle. Each repeat dose was administered in 5 male and 5 female rats. Animals were monitored for the induction of phlebitis or its progression to complete venous blockade.

[1] = Solubility study with β-cyclodextrin and hydroxypropyl β-cyclodextrin; format: physicochemical; conditions: ca. 24 hours, 27° C.
Protocol: The flasks were kept ca. 24 hours on a mechanical shaker, maintained at 27° C. and 140 rpm. The solutions were filtered through 0.2 micron syringe filter. The filtrates were diluted appropriately and injected on HPLC. The amounts dissolved were determined by comparing the sample peak area with peak area of standard solution.

[2] = Solubility at ambient temperature (in water); format: physicochemical
pKa value = format: physicochemical

amount dissolved with HP-β-CD ([1]; HP-β-CD 0 mg/ml) [mg/mL]	amount dissolved with HP-β-CD ([1]; HP-β-CD 2 mg/ml) [mg/mL]	amount dissolved with HP-β-CD ([1]; HP-β-CD 5 mg/ml) [mg/mL]	amount dissolved with HP-β-CD ([1]; HP-β-CD 10 mg/ml) [mg/mL]	amount dissolved with β-CD ([1]; β-CD 0 mg/ml) [mg/mL]	amount dissolved with β-CD ([1]; β-CD 5 mg/ml) [mg/mL]	SMILES	venous tolerability (Wistar rats)	amount dissolved with HP-β-CD ([1]; HP-β-CD 50 mg/ml) [mg/mL]	amount dissolved with β-CD ([1]; β-CD 10 mg/ml) [mg/mL]	solubility [2] [µg/mL]	pKa (pKa value)	amount dissolved with β-CD ([1]; β-CD 2 mg/ml) [mg/mL]
–	–	–	–	–	–	C[C@H]1CCc2c(N3CCC(O)CC3)c(F)cc3c(=O)c(C(=O)O)cn1c23.N=C(N)NCCC[C@H](N)C(=O)O [Substance B, S-(−)-9-fluoro-6,7-dihydro-8-(4-hydroxypiperidin-1-yl)-5-methyl-1-oxo-1H,5H-benzo[I,j]quinolizine-2-carboxylic acid arginine salt]	superior venous tolerability	–	–	–	–	–
0.03	0.05	0.11	0.31	0.03	0.22	CC1CCc2c(N3CCC(O)CC3)c(F)cc3c(=O)c(C(=O)O)cn1c23 (racemic) [Substance C, RS-(±)-9-fluoro-6,7-dihydro-8-(4-hydroxypiperidin-1-yl)-5-methyl-1-oxo-1H,5H-benzo[I,j]quinolizine-2-carboxylic acid]	–	1.03	0.40	–	–	–
0.15	0.37	0.50	1.08	0.15	0.71	C[C@@H]1CCc2c(N3CCC(O)CC3)c(F)cc3c(=O)c(C(=O)O)cn1c23 [Substance D, R-(+)-9-fluoro-6,7-dihydro-8-(4-hydroxypiperidin-1-yl)-5-methyl-1-oxo-1H,5H-benzo[I,j]quinolizine-2-carboxylic acid]	–	5.01	–	–	–	–

SMILES	amount dissolved with HP-β-CD ([1]; HP-β-CD 0 mg/ml) [mg/mL]	amount dissolved with HP-β-CD ([1]; HP-β-CD 2 mg/ml) [mg/mL]	amount dissolved with HP-β-CD ([1]; HP-β-CD 5 mg/ml) [mg/mL]	amount dissolved with HP-β-CD ([1]; HP-β-CD 10 mg/ml) [mg/mL]	amount dissolved with β-CD ([1]; β-CD 0 mg/ml) [mg/mL]	amount dissolved with β-CD ([1]; β-CD 5 mg/ml) [mg/mL]	venous tolerability (Wistar rats)	amount dissolved with HP-β-CD ([1]; HP-β-CD 50 mg/ml) [mg/mL]	amount dissolved with β-CD ([1]; β-CD 10 mg/ml) [mg/mL]	solubility [2] [µg/mL]	pKa (pKa value)	amount dissolved with β-CD ([1]; β-CD 2 mg/ml) [mg/mL]
C[C@H]1CCc2c(N3CCC(O)CC3)c(F)cc3c(=O)c(C(=O)O)cn1c23 [Substance A, S-(−)-9-fluoro-6,7-dihydro-8-(4-hydroxypiperidin-1-yl)-5-methyl-1-oxo-1H,5H-benzo[I,j]quinolizine-2-carboxylic acid]	0.04	0.21	0.28	0.55	0.04	0.27	–	2.67	0.53	< 1500	6.8	0.12
